PubChem BioAssay (NCI)
Several values for one entry are separate records, joined by “and”; a condition that tells them apart may be missing. Identical values can stand only once.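 Results reflect a 48-hour exposure of cells in 96-well plates to compound at five concentrations. The concentration for 50% growth inhibition is given as GI50. TGI marks complete inhibition of growth.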

What was measured:
Test in all cases: NCI anticancer screen, dose series, 48 h
NCI/ADR-RES ovarian = system: NCI/ADR-RES ovarian
HL-60(TB) leukemia = system: HL-60(TB) leukemia
SW-620 colon = system: SW-620 colon
MCF7 breast = system: MCF7 breast
786-0 renal = system: 786-0 renal
SF-539 CNS = system: SF-539 CNS
HCC-2998 colon = system: HCC-2998 colon
EKVX NSCLC = system: EKVX NSCLC
SK-MEL-5 melanoma = system: SK-MEL-5 melanoma
OVCAR-8 ovarian = system: OVCAR-8 ovarian

SMILES | GI50 (NCI/ADR-RES ovarian) | TGI (NCI/ADR-RES ovarian) [µM] | GI50 (HL-60(TB) leukemia) | TGI (HL-60(TB) leukemia) | GI50 (SW-620 colon) [µM] | TGI (SW-620 colon) [µM] | GI50 (MCF7 breast) [µM] | TGI (MCF7 breast) [µM] | GI50 (786-0 renal) | TGI (786-0 renal) [µM] | GI50 (SF-539 CNS) [µM] | TGI (SF-539 CNS) [µM] | GI50 (HCC-2998 colon) [µM] | TGI (HCC-2998 colon) [µM] | GI50 (EKVX NSCLC) [µM] | TGI (EKVX NSCLC) [µM] | GI50 (SK-MEL-5 melanoma) | TGI (SK-MEL-5 melanoma) [µM] | GI50 (OVCAR-8 ovarian) [µM] | TGI (OVCAR-8 ovarian) [µM]
CC(=O)N1CCN(CCOc2ccc(C3CCN(C4=Nn5c(nnc5C(F)(F)F)CC4)CC3)cc2)CC1 | 37 µM | > 100 | 4.41 µM | 99.4 µM | > 100 | > 100 | 4.3 | > 100 | 25.1 µM | > 100 | 22.5 | > 100 | 21.6 | > 100 | 14.7 | > 100 | 6.58 µM | 30.8 | 36 | > 100
N#Cc1c2c(c(-c3cccs3)n(C3OC(CO)C(O)C(O)C3O)c1=S)CCc1ccccc1-2 (stereo unspecified) | 13.4 µM and 39.5 µM | > 100 |  | > 84.7 µM |  | > 100 |  | > 100 | 12.3 µM and 25.2 µM | > 100 |  | > 100 |  | > 100 |  | > 100 | 6.47 µM and 28.4 µM | > 100 |  | > 100
COc1cc(C2c3cc4c(cc3[C@@H](Nc3ccc(N)cc3)C3COC(=O)[C@H]23)OCO4)cc(OC)c1O (stereo partly specified) |  | 44.5 | 0.287 µM and 0.422 µM | 0.862 µM and 5.63 µM | 0.823 | 24.5 |  | 12.3 | 0.514 µM | 4.43 | 0.729 | 6.51 |  | 9.07 | 0.953 | 10.9 | 0.701 µM | 7.09 | 0.87 | 15.8
Cc1nnc(-c2ccc(-c3nc4ccccc4o3)cc2)o1 | > 100 µM | > 100 | 56.8 µM | > 100 µM | > 100 | > 100 | 26.7 | > 100 | > 100 µM | > 100 | > 100 | > 100 | 78.8 | > 100 | 85 | > 100 | 21 µM | 65.3 | 85.6 | > 100
C#CCN(Cc1nc2cc(C(F)(F)F)ccc2nc1-c1ccccc1)c1ccc(F)c(F)c1 | 56.1 µM | > 100 | 39 µM | > 100 µM | 36 | > 100 | 26 | > 100 | > 100 µM | > 100 | 29.2 | > 100 | 44.8 | 96.9 | 17 | 57.2 | 19.1 µM | 46.2 | 31.6 | > 100
NS(=O)(=O)c1ccc(NC(=O)Nc2ccccc2F)cc1 |  | > 100 |  | > 100 µM |  | > 100 |  | > 100 |  | > 100 |  | > 100 |  | > 100 |  | > 100 |  | > 100 |  | > 100
Nc1c(C(=O)Nc2cccc(Br)c2)sc2nc3c(cc12)C(O)CCC3 (stereo unspecified) | 0.435 µM | > 48.8 | 0.24 µM | 0.757 µM | 0.4 | > 82 | 0.289 | > 64.2 | 0.645 µM | 36.1 | 0.337 | 2.14 | 1.61 | 50.2 |  |  | 0.455 µM | > 45.4 | 0.77 | 37.6
Cc1sc2ncn(Cc3ccc(Cl)c(Cl)c3)c(=O)c2c1C | 27.5 µM | > 100 | > 100 µM | > 100 µM | 59.8 | > 100 | 25.6 | > 100 | 34.2 µM | > 100 | 37 | > 100 | 7.39 | 30.1 | 22.2 | > 100 | 54.4 µM | > 100 | 50.8 | > 100
c1ccc2nc(OCCN3CC3)ccc2c1 | 18.1 µM | 44.5 | 6.59 µM | 34.9 µM | 1.97 | 5.43 | 3.4 | 11.4 | 14.3 µM | 37.3 | 21.5 | 47.1 | 2.31 | 5.53 | 12 | 33.4 | 12.9 µM | 26.8 | 14 | 31.4
COc1cccc(C2=C(c3cn(C)c4cccc(OC)c34)C(=O)NC2=O)c1 | 5.28 µM | > 25 | 9.75 µM | > 25 µM | 6.89 | > 25 | 6.99 | > 25 | 17.9 µM | > 25 | 6.58 | 18.6 | > 25 | > 25 |  |  | 7.36 µM | > 25 | 18.5 | > 25
Oc1c(CN2CCOCC2)cc(COCc2ccccc2)c2cccnc12 | 0.287 µM | 1.88 | 2.38 µM | 7.32 µM | 3.61 | > 100 | 2.07 | > 100 | 2.67 µM | 19.2 | 2.24 | 11.5 | 3.28 | > 100 | 2.88 | > 100 | 2.03 µM | 5.43 | 2.8 | > 100
COc1cc(-c2nn(-c3ccc(NC(=O)c4cc(Cl)cc(Cl)c4)cc3)cc2-c2ccncc2)ccc1Cl | > 100 µM | > 100 | 5.82 µM | > 100 µM | > 100 | > 100 | > 100 | > 100 | 1.97 µM | 7.66 | 4.73 | > 100 | 5.88 | > 100 | > 100 | > 100 | 12 µM | > 100 | > 100 | > 100
O=S(=O)(O)ONC1=NCCN1 | > 100 µM | > 100 | > 100 µM | > 100 µM | 72.5 | > 100 | 16.1 | > 100 | 90.6 µM | > 100 | > 100 | > 100 | > 100 | > 100 | > 100 | > 100 | > 100 µM | > 100 | > 100 | > 100
